{
  "source": "patent US12371453B2",
  "about": "“Polypeptide having antibacterial activity, composition for preventing or treating sepsis comprising same, and antibacterial composition” (priority 2019, dated 2025)",
  "key": {"[1]": {"test": "LTA binding by ITC analysis", "settings": "cell wall component of gram-positive bacteria (S. aureus)", "description": "(§1) The binding affinity to lipoteichoic acid (LTA) and lipoprotein (LPP), which are cell wall components of gram-positive bacteria (S. aureus), was confirmed through ITC analysis using allD FP13-NH2.\n(§2) The binding affinity was confirmed using the ITC analysis method, and the experimental method in Example 1 was applied mutatis mutandis."}, "[2]": {"system": "Carbapenem resistant (CR)-Acinetobactor baumannii", "test": "organism not typed", "description": "The antibacterial activity was evaluated according to an antibacterial activity test method for measuring the minimum inhibitory concentration 50 (MIC50; the minimal concentration that kills 50% of bacteria).\nMore specifically, 100 μL of a medium was dispensed into each well of a 96-well plate, and in the first column, an antibiotic and a peptide in 200 μL of the medium were dispensed. 1/2 serial dilution was performed from columns 1 to 11 and five types of antibiotic-resistant bacteria (ESBL-resistant E. coli, carbapenem-resistant A. baumannii, carbapenem-resistant Klebsiella pneumoniae, carbapenem-resistant Pseudomonas aeruginosa, colistin-resistant Acinetobactor baumannii), which had been previously cultured, were diluted (OD600 nm value in dilution: approximately 0.0025) and dispensed into each well. The plate was incubated in a 37° C. incubator for 4 hours, and measured at OD600 nm."}, "[3]": {"system": "S. aureus"}, "[4]": {"system": "lipoprotein (LPP)", "test": "LPP binding by ITC analysis", "settings": "cell wall component of gram-positive bacteria (S. aureus)", "description": "as §1, §2"}, "[5]": {"system": "Salmonela typhimurium (ATCC 53648)", "test": "microbe, parasite or virus in culture", "settings": "Salmonella typhimurium ATCC 53648", "description": "(§3) To compare the antibacterial activity between the four commercially available antibiotics (ampicillin, gentamicin, levofloxacin and imipenem) and the allD FP13-NH2 (AcOH) peptide, an antibacterial activity test was performed to measure the minimum inhibitory concentrations (MIC50 and MIC80) for gram-negative and gram-positive standard strains (Escherichia coli DH5α, Escherichia coli K1, Acinetobacter baumannii, Pseudomonas aeruginosa, Salmonella enteritidis, Salmonella typhimurium, and Klebsiella pneumoniae).\n(§4) More specifically, 100 μL of a medium was dispensed into each well of a 96-well plate, and in the first column, an antibiotic and a peptide in 200 μL of the medium were dispensed. 1/2 serial dilution was performed from columns 1 to 11, and gram-negative and gram-positive bacteria which had been previously cultured were diluted (OD600 nm value in dilution: approximately 0.0025) and dispensed into each well. The plate was incubated in a 37° C. incubator for 4 hours, and measured at OD600 nm."}, "[6]": {"system": "Escherichia coli K1", "test": "microbe, parasite or virus in culture", "settings": "K1", "description": "as §3, §4"}, "[7]": {"system": "Escherichia coli DH5α (ATCC PTA-4750)", "test": "microbe, parasite or virus in culture", "settings": "Escherichia coli DH5α, 4 hours", "description": "as §3, §4"}, "[8]": {"system": "Pseudomanas aeruginosa PAO1 (ATCC 47085D-5)", "test": "microbe, parasite or virus in culture", "settings": "PAO1", "description": "as §3, §4"}, "[9]": {"system": "Klebiella pneumoniae (ATCC 13883)", "test": "microbe, parasite or virus in culture", "settings": "ATCC 13883", "description": "as §3, §4"}, "[10]": {"system": "Salmonela enteritidis (ATCC 13076)", "test": "microbe, parasite or virus in culture", "settings": "ATCC 13076", "description": "as §3, §4"}, "[11]": {"system": "Acinetobacter baumannii (ATCC 19606)", "test": "microbe, parasite or virus in culture", "settings": "ATCC 19606", "description": "as §3, §4"}, "[12]": {"test": "Calcein dye leakage from liposome mimicking gram-negative bacterial cell membrane", "format": "biochemical", "settings": "calcein-encapsulated liposome", "description": "To study an action mechanism for FP12-NH2, FP13-NH2, allD FP12-NH2, and allD FP13-NH2 peptides, the disruption ability of the peptides against liposomes mimicking a bacterial cell membrane and a red blood cell membrane was measured.\nEYPG is an abbreviation for egg yolk L-α-phosphatidyl-DL-glycerol, and EYPC is an abbreviation for egg yolk 1,2-diacyl-sn-glycero-3-phosphocholine. CH is an abbreviation for cholesterol. After dissolving the phospholipids composed according to the content of each component in chloroform, the chloroform was removed using a rotary evaporator, and lyophilization was performed overnight. Afterward, the dried lipid film was dissolved in a Tris-buffer solution, and calcein […]. After repeated freezing and thawing, the calcein-encapsulated liposome was manufactured using an extruder. Subsequently, after an excitation wavelength of a spectrofluorimeter (Shimadzu RF 5301 PC spectrofluorimeter, Japan) was set to 490 nm, and an emission wavelength was set to 520 nm, the peptide was administered to the liposome to measure relative dye leakage, provided that a 100% dye leakage was expressed as fluorescence intensity when 0.010% Triton-X100 was added.\nThe upper graphs of FIG. 3 show the % dye leakage for an EYPC/EYPG (7:3, w/w) liposome mimicking bacterial cells, encapsulating a fluorescent dye, calcein, by a peptide according to a peptide concentration. […] The lower graphs of FIG. 3 show the % dye leakage for an EYPC/CH (10:1, w/w) liposome, which is […] mimicking a human red blood, encapsulating a fluorescent dye, calcein, by a peptide according to a peptide concentration."}},
  "note": "Square brackets hold non-standard residues; d marks the D form. Peptide text beside a SMILES is read from it.",
  "data": [
    {"smiles": "CC(C)C[C@@H](NC(=O)[C@H](N)CCCCN)C(=O)N[C@H](CCCNC(=N)N)C(=O)N[C@@H](C(=O)N[C@H](CCCCN)C(=O)N[C@H](CC(C)C)C(=O)N[C@H](CCCNC(=N)N)C(=O)N[C@H](CCCNC(=N)N)C(=O)N[C@H](Cc1ccc(O)cc1)C(=O)N[C@H](CC(C)C)C(=O)N[C@H](CCCNC(=N)N)C(N)=O)C(C)C", "note": "[allD FP13-NH2] (H-[dK][dL][dR][dV][dK][dL][dR][dR][dY][dL][dR]-NH2; N-terminus assumed)", "values": [
      {"measurement": "binding to LTA (ITC)", "setting": "[1]", "result": "binds"},
      {"measurement": "MIC50, Carbapenem resistant (CR)-Acinetobactor baumannii", "setting": "[2]", "result": "<4", "unit": "µg/mL"},
      {"measurement": "MIC50", "setting": "[3]", "result": 4, "unit": "µM"},
      {"measurement": "MIC90", "setting": "[3]", "result": 8, "unit": "µM"},
      {"measurement": "binding to LPP (ITC)", "setting": "[4]", "result": "binds"},
      {"measurement": "MIC (μg/ml) 50%", "setting": "[5]; 50% growth inhibition", "result": "<2.0", "unit": "µg/mL"},
      {"measurement": "MIC (μg/ml) 80%", "setting": "[5]; 80% growth inhibition", "result": "<4.0", "unit": "µg/mL"},
      {"measurement": "MIC (μg/ml) 50%", "setting": "[6]", "result": "<2.0", "unit": "µg/mL"},
      {"measurement": "MIC (μg/ml) 80%", "setting": "[6]", "result": "<4.0", "unit": "µg/mL"},
      {"measurement": "MIC (μg/ml) 50%", "setting": "[7]; 50% growth inhibition", "result": "<1.0", "unit": "µg/mL"},
      {"measurement": "MIC (μg/ml) 80%", "setting": "[7]; 80% growth inhibition", "result": "<2.0", "unit": "µg/mL"},
      {"measurement": "MIC (μg/ml) 50%", "setting": "[8]", "result": "<0.5", "unit": "µg/mL"},
      {"measurement": "MIC (μg/ml) 80%", "setting": "[8]", "result": "<1.0", "unit": "µg/mL"},
      {"measurement": "MIC (μg/ml) 50%", "setting": "[9]", "result": "<0.5", "unit": "µg/mL"},
      {"measurement": "MIC (μg/ml) 80%", "setting": "[9]", "result": "<1.0", "unit": "µg/mL"},
      {"measurement": "MIC (μg/ml) 50%", "setting": "[10]", "result": "<1.0", "unit": "µg/mL"},
      {"measurement": "MIC (μg/ml) 80%", "setting": "[10]", "result": "<2.0", "unit": "µg/mL"},
      {"measurement": "MIC (μg/ml) 50%", "setting": "[11]", "result": "<4.0", "unit": "µg/mL"},
      {"measurement": "MIC (μg/ml) 80%", "setting": "[11]", "result": "<8.0", "unit": "µg/mL"},
      {"measurement": "dye leakage, PC/PG (7:3, w/w) liposome mimicking a bacteria cell membrane", "setting": "[12]", "result": "high dye leakage"}
    ]}
  ]
}
